Laboratory results reported in ChEMBL document CHEMBL5375983, “Discovery of YSR734: A Covalent HDAC Inhibitor with Cellular Activity in Acute Myeloid Leukemia and Duchenne Muscular Dystrophy” (J Med Chem, 2023).
pIC50: −log10 of the molar value. The source made the active and inactive calls. The rule behind the calls is not given here.

How the values were obtained:
[1] = target: T1, Histone deacetylase 2 (Homo sapiens, UniProt Q92769); experiment: Inhibition of HDAC2 (unknown origin) using 6-carboxyfluorescein peptide as substrate preincubated with compound for 2 hrs followed by substrate addition by electrophoretic mobility shift assay
T1 sequence (Q92769 whole entry): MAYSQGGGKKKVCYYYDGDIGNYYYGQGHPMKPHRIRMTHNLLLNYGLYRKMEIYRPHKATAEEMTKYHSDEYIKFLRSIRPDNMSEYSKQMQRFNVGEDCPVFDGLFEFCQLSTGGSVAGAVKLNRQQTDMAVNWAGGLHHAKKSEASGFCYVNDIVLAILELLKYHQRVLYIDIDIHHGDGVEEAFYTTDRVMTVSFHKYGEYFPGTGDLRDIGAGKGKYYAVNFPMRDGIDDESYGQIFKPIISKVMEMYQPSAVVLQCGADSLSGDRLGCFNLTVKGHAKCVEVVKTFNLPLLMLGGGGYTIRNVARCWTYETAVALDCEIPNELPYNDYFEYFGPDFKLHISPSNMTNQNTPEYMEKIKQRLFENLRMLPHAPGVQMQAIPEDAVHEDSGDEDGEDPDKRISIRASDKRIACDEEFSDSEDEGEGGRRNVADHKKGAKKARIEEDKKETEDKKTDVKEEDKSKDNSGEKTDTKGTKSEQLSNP

[2] = target: T1, Histone deacetylase 2; experiment: Inhibition of HDAC2 (unknown origin) using 6-carboxyfluorescein peptide as substrate preincubated with compound followed by substrate addition by electrophoretic mobility shift assay
[3] = Glutathione reactivity assessed as compound consumption at 500 nM measured after 1 to 3 hrs by LC-MS/MS analysis; format: ADME; details: glutathione solution, time 1-3 hrs, read-out: Activity
[4] = target: T1, Histone deacetylase 2; experiment: Inhibition of HDAC2 (unknown origin) using 6-carboxyfluorescein peptide as substrate preincubated with compound for 6 hrs followed by substrate addition by electrophoretic mobility shift assay
[5] = target: T2, Histone deacetylase 1 (Homo sapiens, UniProt Q13547); experiment: Inhibition of HDAC1 (unknown origin) using 6-carboxyfluorescein peptide as substrate preincubated with compound followed by substrate addition by electrophoretic mobility shift assay
T2 sequence (Q13547 whole entry): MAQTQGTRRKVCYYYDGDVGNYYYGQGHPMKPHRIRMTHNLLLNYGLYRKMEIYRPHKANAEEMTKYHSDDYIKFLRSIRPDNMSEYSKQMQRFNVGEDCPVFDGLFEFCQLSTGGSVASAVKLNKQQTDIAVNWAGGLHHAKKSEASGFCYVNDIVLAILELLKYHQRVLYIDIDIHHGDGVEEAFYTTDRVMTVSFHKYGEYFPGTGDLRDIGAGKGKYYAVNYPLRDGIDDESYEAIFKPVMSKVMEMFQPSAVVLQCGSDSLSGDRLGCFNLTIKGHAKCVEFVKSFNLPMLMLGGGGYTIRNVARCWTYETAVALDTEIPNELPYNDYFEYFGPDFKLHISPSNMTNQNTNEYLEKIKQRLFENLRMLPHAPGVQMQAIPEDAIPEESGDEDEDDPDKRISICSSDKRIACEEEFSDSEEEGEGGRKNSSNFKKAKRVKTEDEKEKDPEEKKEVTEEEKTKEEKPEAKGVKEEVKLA

[6] = test system: MV4-11; experiment: Cytotoxicity against human MV4-11 cells assessed as inhibition of cell growth incubated for 72 hrs by celltiter-blue viability assay; format: functional, cell-based; details: MV4-11, 72 h
[7] = Cytotoxicity against human MRC9 cells assessed as inhibition of cell growth incubated for 72 hrs by celltiter-blue viability assay; format: toxicity, cell-based
[8] = test system: RS4-11; experiment: Cytotoxicity against human RS4-11 cells assessed as inhibition of cell growth incubated for 72 hrs by celltiter-blue viability assay; format: functional, cell-based; details: RS4-11, 72 h
[9] = Selectivity index, ratio of IC50 for cytotoxicity against human MRC9 cells to IC50 for cytotoxicity against human MV4-11 cells
[10] = target: Histone deacetylase 1/2/3 (Homo sapiens) (UniProt Q13547+O15379+Q92769); experiment: […] binding affinity to HDAC1/2/3 in human MV4-11 cells assessed as increase in Ac-histone-H3 level at […] incubated for 6 hrs followed by compound washout and measured after 16 hrs by Western blot analysis; format: cell-based; details: dose 2.5 µM
[11] = target: T1, Histone deacetylase 2; experiment: Binding affinity to recombinant full length HDAC2 catalytic domain Cys274 (unknown origin) assessed as formation of single covalent adduct at 50 uM incubated for 2 hrs by trypsin-digest protein mapping analysis
[12] = target: T3, Histone deacetylase 3 (Homo sapiens, UniProt O15379); experiment: Inhibition of full length recombinant human HDAC3 expressed in Sf9 cells using 6-carboxyfluorescein peptide as substrate preincubated with compound for 2 hrs followed by substrate addition and measured after 3 hrs by electrophoretic mobility shift assay; format: cell-based
T3 sequence (O15379 whole entry): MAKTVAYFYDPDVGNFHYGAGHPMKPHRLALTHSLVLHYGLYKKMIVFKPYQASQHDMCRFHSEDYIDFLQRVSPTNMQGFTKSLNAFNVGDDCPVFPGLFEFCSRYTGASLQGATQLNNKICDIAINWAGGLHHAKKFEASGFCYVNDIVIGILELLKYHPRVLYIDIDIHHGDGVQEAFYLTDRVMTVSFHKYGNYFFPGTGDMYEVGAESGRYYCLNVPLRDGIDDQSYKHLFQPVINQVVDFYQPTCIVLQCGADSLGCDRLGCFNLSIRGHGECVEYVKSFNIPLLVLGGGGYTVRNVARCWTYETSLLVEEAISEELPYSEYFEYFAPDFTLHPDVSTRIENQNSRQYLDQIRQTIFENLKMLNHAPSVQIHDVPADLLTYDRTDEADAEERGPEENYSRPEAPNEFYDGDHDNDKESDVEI

[13] = Cmax in CD-1 mouse at 10 mg/kg, ip measured upto 12 hrs by LC-MS/MS analysis; format: ADME, organism-based; design: time < 12 hrs, dose 10 mg/kg, route ip; details: in vivo
[14] = Glutathione reactivity assessed as compound consumption at 500 nM incubated for 16 hrs by LC-MS/MS analysis; format: ADME; details: glutathione solution, read-out: Drug metabolism
[15] = Tmax in CD-1 mouse at 10 mg/kg, ip measured upto 12 hrs by LC-MS/MS analysis; format: ADME, organism-based; details: in vivo
[16] = target: T3, Histone deacetylase 3; experiment: Inhibition of full length recombinant human HDAC3 expressed in Sf9 cells using 6-carboxyfluorescein peptide as substrate preincubated with compound for 6 hrs followed by substrate addition and measured after 3 hrs by electrophoretic mobility shift assay; format: cell-based
[17] = target: T3, Histone deacetylase 3; experiment: Inhibition of full length recombinant human HDAC3 expressed in Sf9 cells using 6-carboxyfluorescein peptide as substrate preincubated with compound followed by substrate addition and measured after 3 hrs by electrophoretic mobility shift assay; format: cell-based
[18] = target: T2, Histone deacetylase 1; experiment: Inhibition of HDAC1 (unknown origin) using 6-carboxyfluorescein peptide as substrate preincubated with compound for 6 hrs followed by substrate addition by electrophoretic mobility shift assay
[19] = Half life in CD-1 mouse at 10 mg/kg, ip measured upto 12 hrs by LC-MS/MS analysis; format: ADME, organism-based; details: in vivo
[20] = AUCinfinity in CD-1 mouse at 10 mg/kg, ip measured upto 12 hrs by LC-MS/MS analysis; format: ADME, organism-based; design: time < 12 hrs, dose 10 mg/kg, route ip; details: in vivo
[21] = target: T4, Histone deacetylase 8 (Homo sapiens, UniProt Q9BY41); experiment: Inhibition of full length recombinant human HDAC8 expressed in Sf9 cells using 6-carboxyfluorescein peptide as substrate preincubated with compound followed by substrate addition and measured after 3 hrs by electrophoretic mobility shift assay
T4 sequence (Q9BY41 whole entry): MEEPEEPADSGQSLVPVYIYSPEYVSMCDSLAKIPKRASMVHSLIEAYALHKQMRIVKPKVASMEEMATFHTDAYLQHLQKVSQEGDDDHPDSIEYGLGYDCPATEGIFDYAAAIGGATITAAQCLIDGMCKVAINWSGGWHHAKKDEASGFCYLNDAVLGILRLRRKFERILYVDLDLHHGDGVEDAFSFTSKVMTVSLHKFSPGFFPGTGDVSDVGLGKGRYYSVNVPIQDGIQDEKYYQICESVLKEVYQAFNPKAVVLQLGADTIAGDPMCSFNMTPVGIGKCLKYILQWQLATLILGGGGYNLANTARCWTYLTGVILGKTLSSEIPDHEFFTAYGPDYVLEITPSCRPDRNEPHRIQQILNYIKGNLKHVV

[22] = Stability in human whole blood assessed as half life at 100 uM measured upto 40 mins by LC-MS/MS analysis; format: ADME, tissue-based
[23] = test system: MV4-11; experiment: Induction of apoptosis in human MV4-11 cells assessed as healthy cells at 1 uM measured after 6 hrs by annexin V-FITC/PI staining based FACS assay (reference value: 63.50%); format: functional
[24] = target: T5, Histone deacetylase 11 (Homo sapiens, UniProt Q96DB2); experiment: Inhibition of full length recombinant human HDAC11 expressed in Sf9 cells using 6-carboxyfluorescein peptide as substrate preincubated with compound for 6 hrs followed by substrate addition and measured after 17 hrs by electrophoretic mobility shift assay
T5 sequence (Q96DB2 whole entry): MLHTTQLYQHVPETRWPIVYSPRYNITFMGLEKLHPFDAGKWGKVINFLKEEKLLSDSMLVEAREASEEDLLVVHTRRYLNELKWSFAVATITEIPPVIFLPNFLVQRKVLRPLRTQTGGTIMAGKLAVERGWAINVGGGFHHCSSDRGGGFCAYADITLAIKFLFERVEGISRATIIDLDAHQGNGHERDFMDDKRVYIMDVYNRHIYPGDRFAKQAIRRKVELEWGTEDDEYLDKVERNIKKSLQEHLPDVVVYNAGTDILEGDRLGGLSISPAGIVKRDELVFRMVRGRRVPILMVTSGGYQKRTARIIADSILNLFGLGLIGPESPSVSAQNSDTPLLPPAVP

[25] = test system: MV4-11; experiment: Induction of apoptosis in human MV4-11 cells assessed as healthy cells at 4 uM measured after 6 hrs by annexin V-FITC/PI staining based FACS assay (reference value: 63.50%); format: functional
[26] = MRT in CD-1 mouse at 10 mg/kg, ip measured upto 12 hrs by LC-MS/MS analysis; format: ADME, organism-based; details: in vivo
[27] = test system: MV4-11; experiment: Induction of apoptosis in human MV4-11 cells assessed as late apoptotic cells at 1 uM measured after 6 hrs by annexin V-FITC/PI staining based FACS assay (reference value: 16.21%); format: functional
[28] = test system: MV4-11; experiment: Induction of apoptosis in human MV4-11 cells assessed as late apoptotic cells at 4 uM measured after 6 hrs by annexin V-FITC/PI staining based FACS assay (reference value: 16.21%); format: functional

| pIC50 [1] | pIC50 [2] | pIC50 [4] | pIC50 [5] | Compound | pIC50 [6] | IC50 at 72 h [7] [µM] | pIC50 [8] | Ratio IC50 [9] | also measured |
| --- | --- | --- | --- | --- | --- | --- | --- | --- | --- |
| 6.06 | < 6.00 | 6.42 | 6.23 | C=CC(=O)N1CCC(OC(=O)NCc2ccc(C(=O)Nc3ccccc3N)cc2)CC1 | 5.63 | 21.6 | 5.82 | 9 |  |
| 6.04 | < 6.00 | 6.42 | 6.35 | C=CS(=O)(=O)N1CCC(OC(=O)NCc2ccc(C(=O)Nc3ccccc3N)cc2)CC1 |  |  |  |  | Activity [11]: Active; degraded at 0.5 µM [3]: > 50% |
| 6.29 | < 6.00 | 6.70 | 6.43 | Nc1ccccc1NC(=O)c1ccc(CNC(=O)OC2CCN(S(=O)(=O)CCl)CC2)cc1 | 5.86 | 15.9 | 6.14 | 12 |  |
| 6.08 | < 6.00 | 6.41 | 6.16 | C=C=CC(=O)N1CCC(OC(=O)NCc2ccc(C(=O)Nc3ccccc3N)cc2)CC1 |  |  |  |  |  |

Further lines, the compound ahead of its results:

| Compound | pIC50 [1] | pIC50 [2] | pIC50 [4] | pIC50 [5] | pIC50 [6] | IC50 at 72 h [7] [µM] | pIC50 [8] | Ratio IC50 [9] | also measured |
| --- | --- | --- | --- | --- | --- | --- | --- | --- | --- |
| Nc1ccccc1NC(=O)c1ccc(CNC(=O)OC2CCN(C(=O)CCl)CC2)cc1 | < 6.00 | < 6.00 | 6.14 | < 6.00 |  |  |  |  | degraded at 0.5 µM [3]: > 50% |
| Nc1ccccc1NC(=O)c1ccc(CNC(=O)OC2CCN(S(=O)(=O)c3c(F)c(F)cc(F)c3F)CC2)cc1 |  |  |  |  |  |  |  |  | Activity [10]: Active |
| C#CC(=O)N1CCC(OC(=O)NCc2ccc(C(=O)Nc3ccccc3N)cc2)CC1 | 6.12 | < 6.00 | 6.48 | 6.18 |  |  |  |  | degraded at 0.5 µM [3]: > 50% |
| Nc1ccccc1NC(=O)c1ccc(CNC(=O)OC2CCCCC2)cc1 | 6.31 | < 6.00 | 6.56 | 6.04 | 5.97 | 10.9 | 6.21 | 10 | pIC50 [12]: 7.14; Cmax [13]: 2700 ng/mL; degraded at 16 h, 0.5 µM [14]: < 10%; Tmax [15]: 4.8 min; pIC50 [16]: 7.44; pIC50 [17]: 6.56; pIC50 [18]: 7.19; half-life [19]: 311 min; AUC(0-inf) [20]: 1810 ng·h/mL; pIC50 [21]: < 5.00 |
| C=CC(=O)N1CCC[C@@H](n2nc(-c3ccc(Oc4ccccc4)cc3)c3c(N)ncnc32)C1 [IBRUTINIB] |  |  |  |  |  |  |  |  | half-life at 100 µM [22]: 64 min |
| Nc1ccccc1NC(=O)c1ccc(CNC(=O)OCc2cccnc2)cc1 [ENTINOSTAT] |  |  |  |  | 6.15 | 10.2 | 6.52 |  | Activity [23]: 53.43%; pIC50 [24]: < 6.00; Cmax [13]: 6250 ng/mL; Activity [25]: 40.57%; degraded at 16 h, 0.5 µM [14]: < 10%; Tmax [15]: 15 min; half-life at 100 µM [22]: 45 min; MRT [26]: 57.6 min; Activity [27]: 23.15%; half-life [19]: 191 min; Activity [28]: 30.45%; AUC(0-inf) [20]: 5260 ng·h/mL |
| CN(C)C/C=C/C(=O)N1CCC(OC(=O)NCc2ccc(C(=O)Nc3ccccc3N)cc2)CC1 | 6.53 | 6.09 | 6.74 | 6.70 | 5.74 | 31.2 | 5.91 | 17 |  |
